According to patent US6548517B2, “Oxindole inhibitors of factor Xa” (Millennium Pharmaceuticals, Inc., priority 2000, dated 2003):

These compounds were tested against T1, TRYPSIN (Bos taurus, UniProt P00760) (assay: trypsin protease inhibition assay). Conditions: not given.
T1 construct: gene PRSS1
T1 sequence (P00760 24-246): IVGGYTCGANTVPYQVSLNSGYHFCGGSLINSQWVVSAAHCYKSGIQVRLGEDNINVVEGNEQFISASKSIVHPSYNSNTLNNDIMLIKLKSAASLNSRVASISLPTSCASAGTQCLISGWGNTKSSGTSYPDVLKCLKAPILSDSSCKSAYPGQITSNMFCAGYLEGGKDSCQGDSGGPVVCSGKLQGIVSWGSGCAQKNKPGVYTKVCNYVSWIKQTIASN
Type: biochemical

How did the IC50 turn out when `CC(=N)N1CCC(Oc2ccc3c(c2)CC(=O)N3Cc2ccc3ccc(C(=N)N)cc3c2)CC1` [Example 1] was run?
The IC50 was 0.0621 µM.

How did the IC50 turn out when `CC(=N)N1CCC(Oc2ccc3c(c2)C(C)(C)C(=O)N3Cc2ccc3ccc(C(=N)N)cc3c2)CC1` [Example 4] was run?
Its IC50 is 0.0135 µM.

For `CC1(C)C(=O)N(Cc2ccc3ccc(C(=N)N)cc3c2)c2ccc(OC3CCN(C(=N)N)CC3)cc21` [Example 5], which IC50 is on record?
Its IC50 is 0.00639 µM.

`CC(C)=C1C(=O)N(Cc2ccc3ccc(C(=N)N)cc3c2)c2ccc(OC3CCN(C(=N)N)CC3)cc21` [Example 6] was tested. Which IC50 did it give?
The IC50 was 0.0176 µM.

`CC(C)C1C(=O)N(Cc2ccc3ccc(C(=N)N)cc3c2)c2ccc(OC3CCN(C(=N)N)CC3)cc21` (stereo not shown) [Example 7] was tested. Which IC50 did it give?
Its IC50 is 0.00347 µM.

Each compound was assayed against TPA (Homo sapiens, UniProt P00750) (assay: TPA protease inhibition assay). Conditions: not given.
Type: biochemical

TPA, sequence (P00750 36-562, species assumed): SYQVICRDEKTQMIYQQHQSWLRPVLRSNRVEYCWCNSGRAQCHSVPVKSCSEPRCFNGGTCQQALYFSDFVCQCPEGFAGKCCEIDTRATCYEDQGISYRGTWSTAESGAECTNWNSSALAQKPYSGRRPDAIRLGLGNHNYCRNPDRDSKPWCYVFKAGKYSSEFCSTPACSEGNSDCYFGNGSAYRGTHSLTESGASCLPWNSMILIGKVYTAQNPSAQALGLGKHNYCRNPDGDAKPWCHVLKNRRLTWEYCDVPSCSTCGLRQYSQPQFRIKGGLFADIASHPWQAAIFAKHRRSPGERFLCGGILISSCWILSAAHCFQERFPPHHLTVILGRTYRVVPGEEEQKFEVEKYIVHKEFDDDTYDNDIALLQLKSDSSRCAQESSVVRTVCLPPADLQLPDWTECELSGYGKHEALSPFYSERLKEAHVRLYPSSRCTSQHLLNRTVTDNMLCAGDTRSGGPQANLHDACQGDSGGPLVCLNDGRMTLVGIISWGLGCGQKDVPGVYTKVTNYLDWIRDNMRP

With `CC(=N)N1CCC(Oc2ccc3c(c2)CC(=O)N3Cc2ccc3ccc(C(=N)N)cc3c2)CC1` [Example 1] as the compound, how does the IC50 read?
Its IC50 is 18.3 µM.

For `CC(=N)N1CCC(Oc2ccc3c(c2)C(C)(C)C(=O)N3Cc2ccc3ccc(C(=N)N)cc3c2)CC1` [Example 4], which IC50 is on record?
Its IC50 is 17.9 µM.

For `CC1(C)C(=O)N(Cc2ccc3ccc(C(=N)N)cc3c2)c2ccc(OC3CCN(C(=N)N)CC3)cc21` [Example 5], which IC50 is on record?
The IC50 was 19.5 µM.

Which IC50 does the source give for `CC(C)=C1C(=O)N(Cc2ccc3ccc(C(=N)N)cc3c2)c2ccc(OC3CCN(C(=N)N)CC3)cc21` [Example 6] here?
Its IC50 is 28.5 µM.

For `CC(C)C1C(=O)N(Cc2ccc3ccc(C(=N)N)cc3c2)c2ccc(OC3CCN(C(=N)N)CC3)cc21` (stereo not shown) [Example 7], which IC50 is on record?
The IC50 was 27.9 µM.

These compounds were tested against PLASMIN (Homo sapiens, UniProt P00747) (assay: plasmin protease inhibition assay). Conditions: not given.
Type: biochemical

PLASMIN, sequence (P00747 581-810 limits assumed, species assumed): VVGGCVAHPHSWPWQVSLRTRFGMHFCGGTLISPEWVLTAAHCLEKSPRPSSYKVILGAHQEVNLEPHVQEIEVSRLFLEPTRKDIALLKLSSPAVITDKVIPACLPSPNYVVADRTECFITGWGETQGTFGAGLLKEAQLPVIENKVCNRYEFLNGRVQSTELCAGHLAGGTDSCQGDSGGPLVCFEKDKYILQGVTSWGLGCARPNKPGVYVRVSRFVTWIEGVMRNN
PLASMIN, sequence (P00747 97-580 limits assumed, species assumed): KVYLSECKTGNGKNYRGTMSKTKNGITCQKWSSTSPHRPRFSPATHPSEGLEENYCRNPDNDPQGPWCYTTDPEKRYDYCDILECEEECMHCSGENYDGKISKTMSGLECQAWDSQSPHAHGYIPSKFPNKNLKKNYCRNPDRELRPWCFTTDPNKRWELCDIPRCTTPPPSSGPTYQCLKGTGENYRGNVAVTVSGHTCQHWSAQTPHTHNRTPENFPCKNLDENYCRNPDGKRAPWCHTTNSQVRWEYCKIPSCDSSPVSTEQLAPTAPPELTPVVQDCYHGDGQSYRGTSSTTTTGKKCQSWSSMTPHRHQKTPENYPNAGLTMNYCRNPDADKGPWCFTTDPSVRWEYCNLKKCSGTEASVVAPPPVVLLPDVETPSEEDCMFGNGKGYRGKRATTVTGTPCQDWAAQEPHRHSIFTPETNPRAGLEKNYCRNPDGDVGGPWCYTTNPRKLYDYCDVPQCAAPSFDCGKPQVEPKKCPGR

Which IC50 does the source give for `CC(=N)N1CCC(Oc2ccc3c(c2)CC(=O)N3Cc2ccc3ccc(C(=N)N)cc3c2)CC1` [Example 1] here?
The IC50 was 2.46 µM.

Which IC50 does the source give for `CC(=N)N1CCC(Oc2ccc3c(c2)C(C)(C)C(=O)N3Cc2ccc3ccc(C(=N)N)cc3c2)CC1` [Example 4] here?
The IC50 was 2.21 µM.

`CC1(C)C(=O)N(Cc2ccc3ccc(C(=N)N)cc3c2)c2ccc(OC3CCN(C(=N)N)CC3)cc21` [Example 5] was tested. Which IC50 did it give?
Its IC50 is 1.41 µM.

For `CC(C)=C1C(=O)N(Cc2ccc3ccc(C(=N)N)cc3c2)c2ccc(OC3CCN(C(=N)N)CC3)cc21` [Example 6], which IC50 is on record?
Its IC50 is 0.88 µM.

`CC(C)C1C(=O)N(Cc2ccc3ccc(C(=N)N)cc3c2)c2ccc(OC3CCN(C(=N)N)CC3)cc21` (stereo not shown) [Example 7] was tested. Which IC50 did it give?
Its IC50 is 0.734 µM.

These compounds were tested against T2, thrombin (Homo sapiens, UniProt P00734) (assay: thrombin amidolytic assay (Chromozym TH)). Conditions: read-out: IIA IC50.
T2 construct: proteolytic cleavage of its precursor prothrombin at the Arg-Thr linkage at positions 271-272 and the Arg-Ile linkage at positions 320-321
Type: biochemical
Description: (§1) The compounds of the present invention are dissolved in buffer to give solutions containing concentrations such that assay concentrations range from 0 to 100 μM. In the assays for thrombin, prothrombinase and factor Xa, a synthetic chromogenic substrate is added to a solution containing test compound and the enzyme of interest and the residual catalytic activity of that enzyme is determined spectrophotometrically. The IC50 of a compound is determined from the substrate turnover. The IC50 is the concentration of test compound giving 50% inhibition of: the substrate turnover.
(§2) The factor Xa and thrombin assays were performed at room temperature, in 0.02 M TrisHCl buffer, pH 7.5, containing 0.15 M NaCl. The rates of hydrolysis of the para-nitroanilide substrate S-2765 (Chromogenix) for factor Xa, and the substrate Chromozym TH (Boehringer Mannheim) for thrombin following preincubation of the enzyme with inhibitor for 5 minutes at room temperature, and were determined using the Softmax 96-well plate reader (Molecular Devices), monitored at 405 nm to measure the time dependent appearance of p-nitroaniline.

With `CC(=N)N1CCC(Oc2ccc3c(c2)CC(=O)N3Cc2ccc3ccc(C(=N)N)cc3c2)CC1` [Example 1] as the compound, how does the IC50 read?
Its IC50 is 72.5 µM.

Which IC50 does the source give for `CC(=N)N1CCC(Oc2ccc3c(c2)C(C)(C)C(=O)N3Cc2ccc3ccc(C(=N)N)cc3c2)CC1` [Example 4] here?
Its IC50 is 6.97 µM.

With `CC1(C)C(=O)N(Cc2ccc3ccc(C(=N)N)cc3c2)c2ccc(OC3CCN(C(=N)N)CC3)cc21` [Example 5] as the compound, how does the IC50 read?
Its IC50 is 4.53 µM.

For `CC(C)=C1C(=O)N(Cc2ccc3ccc(C(=N)N)cc3c2)c2ccc(OC3CCN(C(=N)N)CC3)cc21` [Example 6], which IC50 is on record?
The IC50 was 19.5 µM.

Which IC50 does the source give for `CC(C)C1C(=O)N(Cc2ccc3ccc(C(=N)N)cc3c2)c2ccc(OC3CCN(C(=N)N)CC3)cc21` (stereo not shown) [Example 7] here?
The IC50 was 4.26 µM.

The compounds below were run against prothrombinase complex (Homo sapiens, UniProt P00742) (assay: prothrombinase inhibition assay, plasma free system). Conditions: read-out: IIASE IC50.
Type: biochemical
Description: as §1
The prothrombinase inhibition assay was performed in a plasma free system with modifications to the method described by Sinha, U. et al., Thromb. Res., 75, 427-436 (1994). Specifically, the activity of the prothrombinase complex was determined by measuring the time course of thrombin generation using the p-nitroanilide substrate Chromozym TH. The assay consists of preincubation (5 minutes) of selected compounds to be tested as inhibitors with the complex formed from factor Xa (0.5 nM), factor Va (2 nM), phosphatidyl serine:phosphatidyl choline (25:75, 20 μM) in 20 mM TrisHCI buffer, pH 7.5, containing 0.15 M NaCl, 5 mM CaCl2 and 0.1% bovine serum albumin. Aliquots from the complex-inhibitor mixture were added to prothrombin (1 nM) and Chromozym TH (0.1 mM). The rate of substrate cleavage was monitored at 405 nm for two minutes. Eight different concentrations of inhibitor were assayed in duplicate. A standard curve of thrombin generation by an equivalent amount of untreated complex was used for determination of percent inhibition.

prothrombinase complex, sequence (P00742 235-488 limits assumed): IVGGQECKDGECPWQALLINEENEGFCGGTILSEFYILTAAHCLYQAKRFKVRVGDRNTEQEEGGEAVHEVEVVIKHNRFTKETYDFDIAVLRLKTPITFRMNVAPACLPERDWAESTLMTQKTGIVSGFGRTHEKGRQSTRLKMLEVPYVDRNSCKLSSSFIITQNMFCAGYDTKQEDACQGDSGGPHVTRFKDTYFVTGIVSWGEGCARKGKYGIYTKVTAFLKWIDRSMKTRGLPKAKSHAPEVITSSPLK
prothrombinase complex, sequence (P00742 41-179 limits assumed): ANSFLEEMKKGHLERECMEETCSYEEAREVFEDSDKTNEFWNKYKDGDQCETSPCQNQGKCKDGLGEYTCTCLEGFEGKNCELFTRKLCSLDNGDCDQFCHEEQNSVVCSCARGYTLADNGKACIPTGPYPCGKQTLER
prothrombinase complex, sequence (P12259 29-737 partner limits assumed): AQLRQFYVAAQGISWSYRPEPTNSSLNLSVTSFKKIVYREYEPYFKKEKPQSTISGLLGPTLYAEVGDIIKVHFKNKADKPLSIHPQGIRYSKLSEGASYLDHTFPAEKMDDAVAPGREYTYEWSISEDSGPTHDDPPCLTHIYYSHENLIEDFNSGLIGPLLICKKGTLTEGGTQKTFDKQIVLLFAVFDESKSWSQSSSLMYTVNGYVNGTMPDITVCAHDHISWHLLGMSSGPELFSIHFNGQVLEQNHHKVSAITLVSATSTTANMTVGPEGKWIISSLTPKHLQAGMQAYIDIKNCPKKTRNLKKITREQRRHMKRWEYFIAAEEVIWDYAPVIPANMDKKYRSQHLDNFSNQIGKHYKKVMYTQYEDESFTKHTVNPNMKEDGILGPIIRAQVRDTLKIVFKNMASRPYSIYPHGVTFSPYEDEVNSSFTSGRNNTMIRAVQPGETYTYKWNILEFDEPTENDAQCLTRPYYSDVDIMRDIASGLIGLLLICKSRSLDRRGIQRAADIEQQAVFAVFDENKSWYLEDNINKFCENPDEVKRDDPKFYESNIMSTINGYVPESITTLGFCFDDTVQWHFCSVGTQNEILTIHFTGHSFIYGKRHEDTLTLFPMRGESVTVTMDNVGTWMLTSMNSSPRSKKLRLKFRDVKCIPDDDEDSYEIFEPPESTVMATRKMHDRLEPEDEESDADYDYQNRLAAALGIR
prothrombinase complex, sequence (P12259 1574-2224 partner limits assumed): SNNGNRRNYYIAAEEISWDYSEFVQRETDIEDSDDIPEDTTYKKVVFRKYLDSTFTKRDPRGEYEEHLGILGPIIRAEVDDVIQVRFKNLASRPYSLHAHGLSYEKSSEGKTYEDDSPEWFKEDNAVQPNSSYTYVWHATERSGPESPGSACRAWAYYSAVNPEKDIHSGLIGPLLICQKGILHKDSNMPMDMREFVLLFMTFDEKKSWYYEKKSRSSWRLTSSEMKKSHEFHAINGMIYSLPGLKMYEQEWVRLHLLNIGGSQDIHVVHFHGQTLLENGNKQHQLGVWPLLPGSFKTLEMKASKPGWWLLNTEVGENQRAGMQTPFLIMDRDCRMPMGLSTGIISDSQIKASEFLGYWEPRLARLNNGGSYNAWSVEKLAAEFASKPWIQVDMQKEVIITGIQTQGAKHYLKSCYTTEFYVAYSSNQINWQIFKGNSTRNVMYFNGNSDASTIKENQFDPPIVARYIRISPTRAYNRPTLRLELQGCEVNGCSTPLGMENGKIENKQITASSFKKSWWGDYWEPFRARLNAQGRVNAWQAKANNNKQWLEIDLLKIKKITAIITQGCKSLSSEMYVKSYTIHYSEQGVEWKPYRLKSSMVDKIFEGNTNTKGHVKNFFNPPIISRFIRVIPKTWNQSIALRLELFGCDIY

With `CC(=N)N1CCC(Oc2ccc3c(c2)CC(=O)N3Cc2ccc3ccc(C(=N)N)cc3c2)CC1` [Example 1] as the compound, how does the IC50 read?
Its IC50 is 0.504 µM.

With `CC(=N)N1CCC(Oc2ccc3c(c2)C(C)(C)C(=O)N3Cc2ccc3ccc(C(=N)N)cc3c2)CC1` [Example 4] as the compound, how does the IC50 read?
Its IC50 is 0.163 µM.

For `CC1(C)C(=O)N(Cc2ccc3ccc(C(=N)N)cc3c2)c2ccc(OC3CCN(C(=N)N)CC3)cc21` [Example 5], which IC50 is on record?
Its IC50 is 0.264 µM.

`CC(C)=C1C(=O)N(Cc2ccc3ccc(C(=N)N)cc3c2)c2ccc(OC3CCN(C(=N)N)CC3)cc21` [Example 6] was tested. Which IC50 did it give?
Its IC50 is 0.0198 µM.

With `CC(C)C1C(=O)N(Cc2ccc3ccc(C(=N)N)cc3c2)c2ccc(OC3CCN(C(=N)N)CC3)cc21` (stereo not shown) [Example 7] as the compound, how does the IC50 read?
Its IC50 is 0.116 µM.

What follows are compounds tested against factor Xa (Homo sapiens, UniProt P00742) (assay: factor Xa amidolytic assay (chromogenic substrate S-2765)). Conditions: not given.
Type: biochemical
Description: as §1, §2

factor Xa, sequence (P00742 235-488 limits assumed): as the sequence (P00742 235-488 limits assumed) above
factor Xa, sequence (P00742 41-179 limits assumed): as the sequence (P00742 41-179 limits assumed) above

With `CC(=N)N1CCC(Oc2ccc3c(c2)CC(=O)N3Cc2ccc3ccc(C(=N)N)cc3c2)CC1` [Example 1] as the compound, how does the IC50 read?
The IC50 was 0.013 µM.

With `CC(=N)N1CCC(Oc2ccc3c(c2)C(C)(C)C(=O)N3Cc2ccc3ccc(C(=N)N)cc3c2)CC1` [Example 4] as the compound, how does the IC50 read?
The IC50 was 0.0402 µM.

Which IC50 does the source give for `CC1(C)C(=O)N(Cc2ccc3ccc(C(=N)N)cc3c2)c2ccc(OC3CCN(C(=N)N)CC3)cc21` [Example 5] here?
The IC50 was 0.0725 µM.

With `CC(C)=C1C(=O)N(Cc2ccc3ccc(C(=N)N)cc3c2)c2ccc(OC3CCN(C(=N)N)CC3)cc21` [Example 6] as the compound, how does the IC50 read?
Its IC50 is 0.0151 µM.

With `CC(C)C1C(=O)N(Cc2ccc3ccc(C(=N)N)cc3c2)c2ccc(OC3CCN(C(=N)N)CC3)cc21` (stereo not shown) [Example 7] as the compound, how does the IC50 read?
Its IC50 is 0.0284 µM.

What follows are compounds tested on KALLIKREIN (assay: kallikrein protease inhibition assay). Conditions: not given.
Type: biochemical

Which IC50 does the source give for `CC(=N)N1CCC(Oc2ccc3c(c2)CC(=O)N3Cc2ccc3ccc(C(=N)N)cc3c2)CC1` [Example 1] here?
The IC50 was 0.307 µM.

With `CC(=N)N1CCC(Oc2ccc3c(c2)C(C)(C)C(=O)N3Cc2ccc3ccc(C(=N)N)cc3c2)CC1` [Example 4] as the compound, how does the IC50 read?
The IC50 was 0.606 µM.

With `CC1(C)C(=O)N(Cc2ccc3ccc(C(=N)N)cc3c2)c2ccc(OC3CCN(C(=N)N)CC3)cc21` [Example 5] as the compound, how does the IC50 read?
Its IC50 is 0.535 µM.

`CC(C)=C1C(=O)N(Cc2ccc3ccc(C(=N)N)cc3c2)c2ccc(OC3CCN(C(=N)N)CC3)cc21` [Example 6] was tested. Which IC50 did it give?
Its IC50 is 0.304 µM.

With `CC(C)C1C(=O)N(Cc2ccc3ccc(C(=N)N)cc3c2)c2ccc(OC3CCN(C(=N)N)CC3)cc21` (stereo not shown) [Example 7] as the compound, how does the IC50 read?
The IC50 was 0.44 µM.

These compounds were tested against APC (Homo sapiens, UniProt P04070) (assay: APC protease inhibition assay). Conditions: not given.
Type: biochemical

APC, sequence (P04070 212-461 limits assumed): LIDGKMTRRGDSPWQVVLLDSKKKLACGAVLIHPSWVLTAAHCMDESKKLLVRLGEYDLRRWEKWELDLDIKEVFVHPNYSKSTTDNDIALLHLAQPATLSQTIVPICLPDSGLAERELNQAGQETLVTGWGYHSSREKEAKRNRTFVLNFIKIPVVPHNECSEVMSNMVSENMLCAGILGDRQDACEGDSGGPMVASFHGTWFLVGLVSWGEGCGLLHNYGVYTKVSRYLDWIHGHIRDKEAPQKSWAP
APC, sequence (P04070 43-197 limits assumed): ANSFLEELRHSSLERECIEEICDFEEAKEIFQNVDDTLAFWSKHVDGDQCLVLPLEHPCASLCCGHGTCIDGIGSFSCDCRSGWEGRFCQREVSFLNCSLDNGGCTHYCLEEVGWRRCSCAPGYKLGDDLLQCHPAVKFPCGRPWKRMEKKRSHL

Which IC50 does the source give for `CC(=N)N1CCC(Oc2ccc3c(c2)CC(=O)N3Cc2ccc3ccc(C(=N)N)cc3c2)CC1` [Example 1] here?
The IC50 was 5.18 µM.

How did the IC50 turn out when `CC(=N)N1CCC(Oc2ccc3c(c2)C(C)(C)C(=O)N3Cc2ccc3ccc(C(=N)N)cc3c2)CC1` [Example 4] was run?
The IC50 was 0.848 µM.

For `CC1(C)C(=O)N(Cc2ccc3ccc(C(=N)N)cc3c2)c2ccc(OC3CCN(C(=N)N)CC3)cc21` [Example 5], which IC50 is on record?
The IC50 was 0.683 µM.

For `CC(C)=C1C(=O)N(Cc2ccc3ccc(C(=N)N)cc3c2)c2ccc(OC3CCN(C(=N)N)CC3)cc21` [Example 6], which IC50 is on record?
The IC50 was 3.06 µM.

For `CC(C)C1C(=O)N(Cc2ccc3ccc(C(=N)N)cc3c2)c2ccc(OC3CCN(C(=N)N)CC3)cc21` (stereo not shown) [Example 7], which IC50 is on record?
The IC50 was 0.549 µM.
